From patent US20230133037A1, “EXTENDED RELEASE GASTRORETENTIVE FORMULATION AGAINST HELICOBACTER PYLORI” (SOLSTAR PHARMA, priority 2019, published 2023)
Converted amounts (≈) assume the structure as drawn. Read-outs that look alike come from different tables or passages of the source. Values belong to the compound of their own block, whether it stands above or below them.

Key:
[1] = system: H. pylori PremSS1 strain; test: In vivo test of anti-Helicobacter pylori activities; set-up: species or system C57BL/6 mice; conditions: ARTE/SG 40, Nacinn 40, Amoxicillin 30 mg/kg
Method: C57BL/6 mice with SPF («specific pathogen free») status, were housed at the A2 pet store at the University of Bordeaux, in an acclimatization room for 1 week and then transferred to zone of experimentation where the project was conducted.
The H. pylori PremSS1 strain (supplied by Dr Anne Mueller, University of Zurich) was used. The functionality of the cagPAl island was verified in vitro in a coculture model with the gastric epithelial line AGS: induction of a so-called «hummingbird» phenotype.
The mice were force-fed at 6 weeks of age with the H. pylori premSS1 strain. The gavages were carried out 3 consecutive days, with a rich suspension of bacteria (2 to 3 dishes of rich culture for 5 mice). […]
The dishes were incubated at 35° C. in a microaerobic atmosphere and H. pylori was identified by its phenotypic and biochemical characteristics (morphology, urease test, oxidase test). The dishes were read after at least 5 days of incubation. […]
Quantitative PCR: the presence of H. pylori DNA and mouse housekeeping genes is quantified in the extracts by quantitative PCR in real time, by detecting the fluorescence emitted by the neo PCR products formed using Sybr Green™. […]

[2] = Solubility in simulated gastric fluid; format: physicochemical; conditions: 0.5 g in 10 mL SGF pH 1.2, 36.5° C.; for appearance of the solution in SGF after 2 hours: 100 rev/min
Method: All solutions are incubated at 36.5° C. under mild shaking with (100 rev/min) in a G24 Environmental Incubator Shaker (New Brunswick Scientific Co., N.J., USA).

[3] = Water solubility / behaviour in solution; format: physicochemical
[4] = system: E. coli; test: Antibacterial activity of artesunate with different treatments; format: cell-based; conditions: 0.2% w/w in medium, start 1.0×10^6 CFU/mL, 18 h at 36.5° C.
Method: Practically, a bacterial cryovial is thawed and cultured twice during 18 h at 36.5° C. in 9 mL of broth for activation.

[5] = system: H. pylori strains; test: Minimum inhibitory concentration, agar dilution method; format: cell-based; conditions: Helicobacter pylori; about 59 strains, 48 h at 37° C., microaerobic
[6] = set-up: species or system CD-1 mice; conditions: CD-1, mouse, in vivo
Method: The in vivo study was carried out on CD-1 mice (body weight approximately 20 g), and the experimental protocol is conducted according to the Animal Care Committee approval.
After review of the medical records provided by the animal supplier facility, mice are observed during 1 week for their acclimation before the experiment.
After administering the treatments as indicated above, blood samples are collected at 5, 15, 30, 45, 120 and 480 minutes after administration and mice are sacrificed. The plasma is separated by centrifugation and conserved −80° C. before processing.
An amount of 400 μL of plasma is dispersed in 1 mL of acetonitrile to precipitate proteins and agitated during 5 minutes with a vortex before placing the suspensions of the sample in an ultrasonic bath for 1 minute. The precipitated proteins are separated by centrifugation (15000 g, 5 minutes at 16° C.) and the supernatant is collected in a microplate for analysis.

[7] = set-up: species or system CD-1 mice; conditions: CD-1, mouse, in vivo, po, 200 mg/kg
Method: The in vivo study was carried out on CD-1 mice (body weight approximately 20 g), and the experimental protocol is conducted according to the Animal Care Committee approval. After review of the medical records provided by the animal supplier facility, mice are observed during 1 week for their acclimation before the experiment.

[8] = system: HEL cells; test: Cell growth, resazurin fluorescence assay; format: cell-based; conditions: 2 μM, 3 days
Method: (§1) Cell growth was followed via the resazurin (alamar blue) fluorescence assay. At day −1, cells were seeded in 100 μL media at a density of 4×10^3 cells/well in 96-well plates and incubated overnight at 37° C. […] Cultures were performed during 3 days after the addition of the drugs. At day 3, Resazurin (0.1 mg/mL, Sigma-Aldrich) was added at 20 μL/well, and plates were incubated for 4 h at 37° C., then fluorescence (Aex=529.5 nm, Aem =582 nm) was measured using ClarioStar™ microplate reader.
(§2) Those supposedly selected cells may be used to test for artemisinin sensitivity before and after encapsulation. This first objective, in addition to checking the sensitivity to artesunate (ARTE), is to test the sensitivity to the complex form (ARTE/Starch Glycolate) as well. This provides information on whether the encapsulation process affects the efficiency of ARTE in vitro. The effects of both drugs on the proliferation of 10 AML cell lines and 1 CML cell line was tested. Both the drug or the drug/Starch Glycolate complex were used at 2 μM, a dose that has been reported to be very efficient at least in two AML cell lines (MV4-11 and MOLM13). The ARTE/Starch Glycolate in water was prepared fresh every time for each experiment. Frozen (−20° C.) ARTE/Starch Glycolate complex was also tested in parallel to fresh ARTE/Starch Glycolate in each experiment, to evaluate stability after freezing. • a.

[9] = system: HL60 cells; test: Cell growth, resazurin fluorescence assay; format: cell-based; conditions: 2 μM, 3 days
Method: as §1, §2

[10] = system: ML2 cells; test: Cell growth, resazurin fluorescence assay; format: cell-based; conditions: 2 μM, 3 days
Method: as §1, §2

[11] = system: MOLM13 cells; test: Cell growth, resazurin fluorescence assay; format: cell-based; conditions: 2 μM, 3 days
Method: as §1, §2

[12] = system: NB4 cells; test: Cell growth, resazurin fluorescence assay; format: cell-based; conditions: 2 μM, 3 days
Method: as §1, §2

[13] = system: THP1 cells; test: Cell growth, resazurin fluorescence assay; format: cell-based; conditions: 2 μM, 3 days
Method: as §1, §2

[14] = system: U937 cells; test: Cell growth, resazurin fluorescence assay; format: cell-based; conditions: 2 μM, 3 days
Method: as §1, §2

[15] = system: K562 cells; test: Cell growth, resazurin fluorescence assay; format: cell-based; conditions: 3 days
Method: as §2, with “Cell growth was followed via the resazurin (alamar blue) fluorescence assay. At day −1, cells were seeded in 100 μL media at a density of 4×10^3 cells/well in 96-well plates and incubated overnight at 37° C. […] Cultures were performed during 3 days after the addition of the drugs. At day 3, Resazurin (0.1 mg/mL, Sigma-Aldrich) was added at 20 μL/well, and plates were incubated for 4 h at 37° C., then fluorescence (Aex=529.5 nm, Aem =582 nm) was measured using ClarioStar™ microplate reader. […] Those” for “Those”

[16] = system: KG1 cells; test: Cell growth, resazurin fluorescence assay; format: cell-based; conditions: 3 days
Method: as §2, with “Cell growth was followed via the resazurin (alamar blue) fluorescence assay. At day −1, cells were seeded in 100 μL media at a density of 4×10^3 cells/well in 96-well plates and incubated overnight at 37° C. […] Cultures were performed during 3 days after the addition of the drugs. At day 3, Resazurin (0.1 mg/mL, Sigma-Aldrich) was added at 20 μL/well, and plates were incubated for 4 h at 37° C., then fluorescence (Aex=529.5 nm, Aem =582 nm) was measured using ClarioStar™ microplate reader. […] Those” for “Those”

[17] = system: MV4-11 cells; test: Cell growth, resazurin fluorescence assay; format: cell-based; conditions: 3 days
Method: as §2, with “Cell growth was followed via the resazurin (alamar blue) fluorescence assay. At day −1, cells were seeded in 100 μL media at a density of 4×10^3 cells/well in 96-well plates and incubated overnight at 37° C. […] Cultures were performed during 3 days after the addition of the drugs. At day 3, Resazurin (0.1 mg/mL, Sigma-Aldrich) was added at 20 μL/well, and plates were incubated for 4 h at 37° C., then fluorescence (Aex=529.5 nm, Aem =582 nm) was measured using ClarioStar™ microplate reader. […] Those” for “Those”

[18] = system: KG1a cells; test: Cell growth, resazurin fluorescence assay; format: cell-based; conditions: 3 days
Method: Cell growth was followed via the resazurin (alamar blue) fluorescence assay. At day −1, cells were seeded in 100 μL media at a density of 4×10^3 cells/well in 96-well plates and incubated overnight at 37° C. […] Cultures were performed during 3 days after the addition of the drugs. At day 3, Resazurin (0.1 mg/mL, Sigma-Aldrich) was added at 20 μL/well, and plates were incubated for 4 h at 37° C., then fluorescence (Aex=529.5 nm, Aem =582 nm) was measured using ClarioStar™ microplate reader. […] Those supposedly selected cells may be used to test for artemisinin sensitivity before and after encapsulation. This first objective, in addition to checking the sensitivity to artesunate (ARTE), is to test the sensitivity to the complex form (ARTE/Starch Glycolate) as well. This provides information on whether the encapsulation process affects the efficiency of ARTE in vitro. The effects of both drugs on the proliferation of 10 AML cell lines and 1 CML cell line was tested. […] ARTE.SG and ARTE have the Same IC50 in 4 Representative Leukemic Cell Lines To further confirm the equivalent efficiency between ARTE and ARTE.SG, the IC50 of both drugs on 4 leukemic cell lines that cover the 3 sensitivity groups described above was calculated.

[19] = according to the DrugBank; cited from earlier work

SMILES: CC1(C)S[C@@H]2[C@H](NC(=O)[C@H](N)c3ccc(O)cc3)C(=O)N2[C@H]1C(=O)O [Amoxicillin]
- antibacterial effect by quantitative culture or quantitative PCR (Experiment 1) ([1]; 7 days of treatment, absence of proton pump inhibitor): no antibacterial effect
- antibacterial effect by quantitative culture or quantitative PCR (Experiment 2) ([1]; 14 days, with Pantoprazole 150 mg/kg): certain antibacterial effect

- appearance of the solution in SGF after 12 h [2]: a precipitation is formed at the bottom
- solubility in water [3]: only slightly soluble
SMILES: C[C@H]1[C@H](OC(=O)CCC(=O)[O-])O[C@@H]2O[C@@]3(C)CC[C@H]4[C@H](C)CC[C@@H]1[C@@]24OO3.[Na+] [artesunate sodium salt form]
- appearance of the solution in SGF after 2 hours [2]: cloudy, but no evident precipitation is observed
- bacterial concentration after incubation (reduction from 10^6) [4]: 10^4 CFU/mL

- appearance of the solution in SGF after 12 h [2]: no change
- MIC50 [5]: 20 µg/mL (≈ 52 µM)
- MIC90 [5]: 80 µg/mL (≈ 208 µM)
- AUC Area under curve ([6]; iv, 3.5 mg/kg): 507 ± 102 ng·min/mL
- Cl Clearance ([6]; iv, 3.5 mg/kg): 6930 ± 398 mL/min/kg
- Tmax Maximum peak time ([6]; iv, 3.5 mg/kg): 15 min
- T½ Apparent plasma half-life ([6]; iv, 3.5 mg/kg): 12 ± 2 min
- Cl Clearance ([6]; po, 200 mg/kg): 24295 ± 8527 mL/min/kg
- Oral Bioavailability F ([6]; po, 200 mg/kg): 8 ± 4%
- time to maximum concentration of DHA (prostate section, printed 'in the brain') [7]: 30 min
- IC50 ([15]; Homo sapiens, K562, 72 h, preliminary): ~8 µM
- IC50 ([17]; Homo sapiens, MV4-11, 72 h, preliminary): 250 to 500 nM
SMILES: C[C@@H]1CCC2[C@@H](C)[C@H](OC(=O)CCC(=O)O)OC3O[C@@]4(C)CCC1[C@]32OO4 (stereo partly shown) [untreated artesunate, Artesunate]
- appearance of the solution in SGF after 2 hours [2]: milky appearance, with an important precipitation at the bottom of vial
- bacterial concentration after incubation (reduction from 10^6) [4]: no significant change
- sensitivity group [8]: moderately sensitive
- sensitivity group [9]: moderately sensitive
- sensitivity group [10]: moderately sensitive
- sensitivity group [11]: highly sensitive
- sensitivity group [12]: highly sensitive
- sensitivity group [13]: highly sensitive
- sensitivity group [14]: moderately sensitive
- sensitivity group ([15]; 2 μM): low sensitivity
- sensitivity group ([16]; 2 μM): moderately sensitive
- IC50 ([16]; Homo sapiens, KG-1, 72 h, preliminary): ~1000 nM
- sensitivity group ([17]; 2 μM): highly sensitive
- sensitivity group ([18]; 2 μM): low sensitivity
- IC50 ([18]; Homo sapiens, KG-1a, 72 h, preliminary): ~2000 nM
- water solubility [19]: 0.68 mg/mL (≈ 1770 µM)
